These results are taken from patent publication US12528790B2, “Amide derivative having antiviral activity” (Shionogi & Co., Ltd., priority 2020, dated 2026).

Read-outs that look alike come from different tables or passages of the source.

This test relates to RSV A2 strain. Put plainly: In vitro CPE (CytoPathic Effect) inhibition effect evaluation test, RSV type A. The format is cell-based. On the procedure: The test sample is diluted in advance to an appropriate concentration with DMSO, and 3-fold series of serial dilutions were prepared on a 384-well plate (0.32 μL/well). HEp-2 cells (CCL-23; ATCC) adjusted at appropriate number (2.4×10^5 cells/mL) in 2% FBS E-MEM (prepared by adding kanamycin and FBS to Eagle's Minimum Essential Medium; Invitrogen) were added at 12.5 μL/well to the 384-well plate previously aliquoted with the test samples. The RSV A2 strain was diluted to an appropriate concentration in a culture medium and added to the 384-well plate containing the test sample at 12.5 μL/well. The culture medium was added additionally to the 384-well plate, and the test was started with 50 μL/well. Control wells were prepared with only virus-free culture medium. The plate was incubated in a 5% CO2 incubator at 37° C. for 4 days, and the plate was then placed at room temperature for 30 minutes. CellTiter-Glo (registered trademark) 2.0 assay (Promega) was added at 15 μL/well, mixed for 30 seconds, and the plate was placed for approximately 1 hour. The luminescent signal was then measured by EnVision (PerkinElmer). The inhibitory effect of the test agents on RSV-induced CPE was calculated as 0% and 100% inhibition rate for each sample concentration based on the level of remaining viable cells by CellTiter-Glo (registered trademark) 2.0, with the EC50 value for each compound calculated by nonlinear regression as the concentration that inhibits RSV-induced CPE by 50%. In the case of evaluation against RSV type B, RSV B (Wash/18537 strain) was infected in the same manner as the type A, cultured for 5 days, and quantitated in the same manner as for the A2 strain.
(Cytopathic effects are the visible damage that an infection or toxin causes in cultured cells.)

[1] abbreviates: human respiratory syncytial virus, inhibitory effect against RSV type A (RSV A2 strain), HEp-2 cells, CPE inhibition, read-out: EC50.
Setting [2] is: inhibitory effect against RSV type A (RSV A2 strain), HEp-2 cells, CPE inhibition, read-out: EC50.

Regarding `CC1CC(Oc2ccc3c(-c4ncc(C(=O)NC5(C(=O)O)C6CC7CC(C6)CC5C7)c(C(F)(F)F)n4)cn(C4CCC(F)(F)CC4)c3c2)CCN1c1ncc(F)cn1` (single isomer, unassigned) [Compound I-385], the EC50 – broadly, the concentration at which the effect is half-maximal – under setting [1] was less than 0.01 µM.

With `O=C(NC1(C(=O)O)C2CC3CC(C2)CC1C3)c1ccc(-c2cn(C3CS(=O)(=O)C3)c3cc(OC4CCN(c5ncccn5)CC4)ccc23)nc1C(F)(F)F` (centres unmarked) [Compound I-251], the EC50 under setting [1] is less than 0.01 µM.

Turning to `O=C(NC1(C(=O)O)C2CC3CC1CC(O)(C3)C2)c1cnc(N2CCc3cc(OCCC4CCOCC4)ccc32)nc1C(F)(F)F` (single isomer, unassigned) [Compound I-97], under setting [2], the half-maximal effective concentration (EC50) fell in the range of 0.01 to 0.1 µM.

In the case of `O=C(NC1(C(=O)O)CCCCC1)c1cnc(N2CC3(CCNCC3)c3cc(OCCC4CCOCC4)ccc32)nc1C(F)(F)F` [Compound I-89], the EC50 (human respiratory syncytial virus, HEp-2) lay within 0.1 to 5 µM.

For `N#C[C@]12C[C@@H]3C[C@H](C1)[C@@](NC(=O)c1cnc(N4CC5(CCOCC5)c5cc(OC6CCN(c7ncccn7)CC6)ccc54)nc1C(F)(F)F)(C(=O)O)[C@@H](C3)C2` [Compound I-219], under setting [1], the EC50 was less than 0.01 µM.

Take `O=C(NC1(C(=O)O)C2CC3CC(C2)CC1C3)c1cnc(N2CC3(CCN(c4ncc(F)cn4)C3)c3cc(OC4CCN(c5ncccn5)CC4)ccc32)nc1C(F)(F)F` (racemic) [Compound I-361]: the 50% effective concentration (EC50) under setting [2] was less than 0.01 µM.

For the molecule `Cn1cc(CN2CC(Oc3ccc4c(c3)C3(CCOCC3)CN4c3ncc(C(=O)NC4(C(=O)O)C5CC6CC(C5)CC4C6)c(C(F)(F)F)n3)C2)cn1` (centres unmarked) [Compound I-231], the half-maximal effective concentration (EC50) under setting [1] was less than 0.01 µM.

In the case of `N#Cc1cccc(-n2cc(-c3ccc(C(=O)NC4(C(=O)O)C5CC6CC(C5)CC4C6)c(C(F)(F)F)n3)c3ccc(OC4CCN(c5ncccn5)CC4)cc32)c1` (centres unmarked) [Compound I-336], the concentration for a half-maximal effect (EC50) under setting [2] is less than 0.01 µM.

Consider `COc1cccc(/C=C/c2ccc3c(c2)CCN3c2ncc(C(=O)NC3(C(=O)O)CCCCC3)c(C(F)(F)F)n2)c1` [Compound I-24], for which, under setting [1], the EC50 is 0.01 to 0.1 µM.

Consider `CCc1ccc2c(c1)C1(CCOCC1)CN2c1ncc(C(=O)NC2(C(=O)O)C3CC4CC(C3)CC2C4)c(C(F)(F)F)n1` (centres unmarked) [Compound I-133], for which the half-maximal effective concentration (EC50) under setting [1] is less than 0.01 µM.

For `Cn1ccc(CCOc2ccc3c(-c4ncc(C(=O)NC5(C(=O)O)C6CC7CC(C6)CC5C7)c(C(F)(F)F)n4)cn(C4CCC(F)(F)CC4)c3c2)n1` (centres unmarked) [Compound I-366], the concentration for a half-maximal effect (EC50) under setting [1] is less than 0.01 µM.

For `O=C(NC1(C(=O)O)C2CC3CC(C2)CC1C3)c1cnc(N2CC3(CCOCC3)c3cc(CN4CCC5(CC4)COC5)ccc32)nc1C(F)(F)F` (centres unmarked) [Compound I-352], the half-maximal effective concentration (EC50) under setting [2] is 0.01 to 0.1 µM.

Turning to `Cc1ccccc1-n1cc(-c2ccc(C(=O)NC3(C(=O)O)C4CC5CC(C4)CC3C5)c(C(F)(F)F)n2)c2ccc(OC3CCN(c4ncccn4)CC3)cc21` (centres unmarked) [Compound I-314], under setting [2], the EC50 was less than 0.01 µM.

Turning to `O=C(NC1(C(=O)O)C2CC3CC(C2)CC1C3)c1cnc(N2CC3(CCOCC3)c3cc(C4CCCC4)ccc32)nc1C(F)(F)F` (centres unmarked) [Compound I-129], the half-maximal effective concentration (EC50) under setting [1] was less than 0.01 µM.

In the case of `CC(C)(C)CC(NC(=O)c1cnc(-c2cn(C3CCC(F)(F)CC3)c3cc(OC4CCN(c5ncccn5)CC4)ccc23)nc1C(F)(F)F)C(=O)O` (racemic) [Compound I-271], the concentration giving a half-maximal response (EC50) under setting [1] is less than 0.01 µM.

With `O=C(NC1(C(=O)O)C2CC3CC(C2)CC1C3)c1cnc(N2CC3(CCOCC3)c3cc4c(cc32)OC(F)(F)O4)nc1C(F)(F)F` (centres unmarked) [Compound I-299], under setting [2], the concentration giving a half-maximal response (EC50) lay within 0.01 to 0.1 µM.

As to `COc1cccc(CNc2ccc3c(c2)CCN3c2ncc(C(=O)NC3(C(=O)O)CCCCC3)c(C(F)(F)F)n2)c1` [Compound I-40], the concentration for a half-maximal effect (EC50) under setting [1] is less than 0.01 µM.

In the case of `COc1cccnc1-n1cc(-c2ccc(C(=O)NC3(C(=O)O)C4CC5CC(C4)CC3C5)c(C(F)(F)F)n2)c2ccc(OC3CCN(c4ncccn4)CC3)cc21` (centres unmarked) [Compound I-325], under setting [2], the EC50 is less than 0.01 µM.

`Cn1ccnc1N1CCC(Oc2ccc3c(c2)CCN3c2ncc(C(=O)NC3(C(=O)O)CCCCC3)c(C(F)(F)F)n2)CC1` [Compound I-207]: under setting [1], the EC50 fell in the range of 0.01 to 0.1 µM.

In the case of `O=C(NC1(C(=O)O)C2CC3CC(C2)CC1C3)c1ccc(-c2cn(C3CCC(F)CC3)c3cc(OC4CCN(c5ncc(F)cn5)CC4)ccc23)nc1C(F)(F)F` (single isomer, unassigned) [Compound I-398], the EC50 under setting [2] was less than 0.01 µM.

`CN(C)C(=O)C1(NC(=O)c2cnc(N3CC4(CCOCC4)c4cc(OC5CCN(c6ncccn6)CC5)ccc43)nc2C(F)(F)F)C2CC3CC(C2)CC1C3` (centres unmarked) [Compound I-174]: the half-maximal effective concentration (EC50) under setting [1] was less than 0.01 µM.

Regarding `O=C(NC1(C(=O)O)C2CC3CC(C2)CC1C3)c1ccc(-c2cn(-c3ccc(C(F)(F)F)cn3)c3cc(OC4CCN(c5ncccn5)CC4)ccc23)nc1C(F)(F)F` (centres unmarked) [Compound I-303], the 50% effective concentration (EC50) under setting [2] was less than 0.01 µM.

With `O=C(NC1(C(=O)O)C2CC3CC(C2)CC1C3)c1cnc(-c2cn(C3CCC(F)(F)CC3)c3cc(OC4CCN(c5cc(F)ccn5)CC4)ccc23)nc1C(F)(F)F` (centres unmarked) [Compound I-411], the EC50 under setting [1] is less than 0.01 µM.

As for `O=C(NC1(C(=O)O)C2CC3CC(C2)CC1C3)c1ccc(-c2cn(-c3cnccn3)c3cc(OC4CCN(c5ncccn5)CC4)ccc23)nc1C(F)(F)F` (centres unmarked) [Compound I-198], the half-maximal effective concentration (EC50) under setting [1] is less than 0.01 µM.

In the case of `O=C(NC1(C(=O)O)C2CC3CC(C2)CC1C3)c1ccc(-c2cn([C@H]3CC[C@@H](O)CC3)c3cc(OC4CCN(c5ncccn5)CC4)ccc23)nc1C(F)(F)F` (some centres unmarked) [Compound I-194], the concentration giving a half-maximal response (EC50) under setting [1] was less than 0.01 µM.

As for `O=C(NC1(C(=O)O)C2CC3CC(C2)CC1C3)c1cnc(N2CC3(CCOCC3)c3cc(Nc4ccc(C(F)(F)F)cn4)ccc32)nc1C(F)(F)F` (centres unmarked) [Compound I-436], the concentration for a half-maximal effect (EC50) under setting [1] is less than 0.01 µM.

In the case of `COc1cccc(COc2ccc3c(ccn3-c3ncc(C(=O)NC4(C(=O)O)CC5CCC4C5)c(C(F)(F)F)n3)c2)c1` (single isomer, unassigned) [Compound I-18], the concentration for a half-maximal effect (EC50) under setting [1] is less than 0.01 µM.

With `O=C(NC1(C(=O)O)C2CC3CC(C2)CC1C3)c1cnc(-c2cn(C3CCC(F)(F)CC3)c3cc(O[C@H]4CCN(c5ncc(F)cn5)C4)ccc23)nc1C(F)(F)F` (some centres unmarked) [Compound I-377], under setting [1], the EC50 is less than 0.01 µM.

`NC(=O)[C@@]1(NC(=O)c2cnc(N3CC4(CCOCC4)c4cc(OC5CCN(c6ncccn6)CC5)ccc43)nc2C(F)(F)F)[C@@H]2CC3C[C@H]1C[C@@](F)(C3)C2` [Compound I-166]: under setting [1], the half-maximal effective concentration (EC50) is less than 0.01 µM.

Take `O=C(NC1(C(=O)O)C2CC3CC(C2)CC1C3)c1cnc(-c2cn(C3CCC(F)(F)CC3)c3cc(OCCNc4ncccn4)ccc23)nc1C(F)(F)F` (centres unmarked) [Compound I-372]: under setting [1], the concentration giving a half-maximal response (EC50) is less than 0.01 µM.

As to `O=C(NC1(C(=O)O)C2CC3CC(C2)CC1C3)c1ccc(-c2cn(C3CCC(F)(F)CC3)c3cc(OC4CCN(C5COC5)CC4)ccc23)nc1C(F)(F)F` (centres unmarked) [Compound I-240], the EC50 under setting [1] was less than 0.01 µM.

Regarding `O=C(NC1(C(=O)O)CCCCC1)c1cnc(N2CCc3cc(NC4CCN(c5ncccn5)CC4)ccc32)nc1C(F)(F)F` [Compound I-67], the EC50 under setting [1] lay in the range of 0.01 to 0.1 µM.

In the case of `O=C(N[C@@]1(C(=O)O)[C@@H]2C[C@@H]3C[C@H]1C[C@@](F)(C3)C2)c1cnc(N2CCc3cc(OCCC4CCOCC4)ccc32)nc1C(F)(F)F` [Compound I-163], under setting [1], the 50% effective concentration (EC50) was less than 0.01 µM.

Turning to `CN(CC(F)(F)F)[C@H]1CC[C@H](Oc2ccc3c(-c4ncc(C(=O)NC5(C(=O)O)C6CC7CC(C6)CC5C7)c(C(F)(F)F)n4)cn(C4CCC(F)(F)CC4)c3c2)CC1` (some centres unmarked) [Compound I-450], the concentration giving a half-maximal response (EC50) under setting [1] was less than 0.01 µM.

For `N#CC1(NC(=O)c2cnc(N3CC4(CCOCC4)c4cc(OC5CCN(c6ncccn6)CC5)ccc43)nc2C(F)(F)F)CCCCC1` [Compound I-94], the 50% effective concentration (EC50) under setting [1] is less than 0.01 µM.
